According to PubChem BioAssay AID1996:
Converted amounts (≈) assume the structure as drawn.

settings: buffer; pH 7.4; 200.0 µM

SMILES	solubility kinetic
CC(OC(=O)c1ccc(Cl)nc1)C(=O)Nc1ccc2c(c1)OCO2 (configuration not stated)	11.9 µg/mL (≈ 34.1 µM)
Cc1c(NC(=O)c2ccc(NS(=O)(=O)c3ccc(F)c(F)c3)cc2)c(=O)n(-c2ccccc2)n1C	> 74.8 µg/mL
O=C(N1CCOCC1)N1CCN(S(=O)(=O)c2ccc(F)cc2)CC1	> 53.6 µg/mL
Nc1nc(NC(=O)c2ccccc2Cl)nn1-c1ccccc1	> 47.1 µg/mL
O=C1C2C3C=CC(CC3)C2C(=O)N1c1cccc(Br)c1 (configuration not stated)	2 µg/mL (≈ 6.02 µM)
O=S(=O)(NC(=S)NC1CCCCC1)c1ccccc1	44 µg/mL (≈ 147 µM)
COc1ccc(S(=O)(=O)N2CCOCC2)cc1NC(=O)CSc1nnc(C2CC2)n1C	> 70.1 µg/mL
N#C/C(=C\c1ccc[nH]1)C(=O)N1CCCCC1	> 34.4 µg/mL
Cc1cc(C)cc(NC(=S)NC(=O)C2CC2)c1	30 µg/mL (≈ 121 µM)
Cc1ccc(C2=Nc3ccccc3N=C(C(Cl)Cl)C2)cc1	3.1 µg/mL (≈ 9.77 µM)
CC(C)(C)C(=O)COc1ccccc1[N+](=O)[O-]	> 35.6 µg/mL
CCCCc1nnc(SCC(=O)Nc2nccs2)n1CC	> 48.8 µg/mL
N#Cc1ccccc1COc1cccc2c1CCCC2O (configuration not stated)	2.1 µg/mL (≈ 7.52 µM)
COc1ccccc1-n1c(-c2ccc(C)cc2)nc2ccccc2c1=O	3.3 µg/mL (≈ 9.64 µM)
CCOC(=O)c1cc2c(ccn2C)n1Cc1ccccc1Cl	< 0.3 µg/mL
CCN(CC)C(=O)Cn1cc(SCC(=O)NC)c2ccccc21	46.5 µg/mL (≈ 139 µM)
CS(=O)(=O)Nc1ccc2c(c1)ncn2CCc1ccccc1	> 47.3 µg/mL
Cc1cc(C)c(NC(=O)COC(=O)C2CCC2)c(Cl)c1	42.2 µg/mL (≈ 143 µM)
CCOC(=O)/C=C(C)\C=C\c1c[nH]c2ccccc12	12.5 µg/mL (≈ 49 µM)
O=C(Nc1ccc(Nc2ccccc2)cc1)c1ccc(Cl)cc1	0.4 µg/mL (≈ 1.24 µM)
O=C1CC(c2ccccc2)CN1 (configuration not stated)	> 24.2 µg/mL
CC(C)(C)NC(=O)N1CCN(c2nc3ccc(Cl)cc3s2)CC1	1.7 µg/mL (≈ 4.82 µM)

SMILES	solubility kinetic
CCCNc1nc(Cl)nc(NCc2cccnc2)n1	33.5 µg/mL (≈ 120 µM)
O=C(NCCc1ccc(Cl)cc1)c1cc(=O)[nH]c2ccccc12	2.4 µg/mL (≈ 7.34 µM)
CCOC(=O)COc1ccccc1/C=C1\NC(=O)NC1=O	33 µg/mL (≈ 114 µM)
COc1ccc(Nc2ccc([N+](=O)[O-])c3nonc23)c(OC)c1	< 0.2 µg/mL
Cc1ccc(-c2nsc(SCC(=O)NCC3CCCO3)n2)cc1 (configuration not stated)	> 52.4 µg/mL
Cc1cccc(NC(=O)c2ccc3c(c2)CCN3S(C)(=O)=O)c1	37.5 µg/mL (≈ 113 µM)
O=C(c1ccco1)c1cn(CC(=O)N2CCCCCC2)c2ccccc12	1.4 µg/mL (≈ 4 µM)
O=C(O)c1ccc(NCCC2=CCCCC2)c([N+](=O)[O-])c1	41.9 µg/mL (≈ 144 µM)
CCOc1cc(C(=O)OC(C(=O)NC(=O)NC)c2ccccc2)ccc1OCC(=O)N1CCOCC1 (configuration not stated)	11.4 µg/mL (≈ 22.8 µM)
COc1ccc(OC)c(Nc2nc(C)nc3c2oc2ccccc23)c1	< 0.2 µg/mL
Oc1ccccc1C(=S)N1CCN(C(=S)c2ccccc2O)CC1	5.1 µg/mL (≈ 14.2 µM)
CSc1ccccc1C(=O)N1CCc2ccccc2C1	> 42.5 µg/mL
Nc1[nH]c(=O)nc(Nc2ccccc2)c1N=O	> 34.7 µg/mL
O=C(Nc1ccc(C(=O)O)cc1)/C(=C\c1ccco1)NC(=O)c1ccco1	> 54.9 µg/mL
CCOc1ccc(NC(=O)C(C)Sc2nccn2C)cc1 (configuration not stated)	> 45.8 µg/mL
Cc1ccc(C(=O)OC(C)CN2CCN(C)CC2)cc1.Cl (configuration not stated)	40.8 µg/mL
Cc1csc(NC(=O)c2sccc2C)n1	> 35.7 µg/mL
COc1ccc(C(=O)Cn2cc[n+](C)c2)cc1.[Br-]	> 46.7 µg/mL
CC1=CC(C)(C)N(C(=O)Nc2ccccc2)c2ccccc21	7.8 µg/mL (≈ 26.7 µM)
CCCC(=O)Nc1cc(C(F)(F)F)ccc1N1CCOCC1	44.6 µg/mL (≈ 141 µM)
COc1ccc(S(=O)(=O)N2CCC(N3CCCC3)CC2)cc1	46.7 µg/mL (≈ 144 µM)
COc1ccc(S(=O)(=O)N(C)CC(=O)N2CCCCCC2)cc1	> 51.1 µg/mL

SMILES	solubility kinetic
O=C(Nc1ccc(Cl)cc1)C(Cl)C(=O)c1ccccc1 (configuration not stated)	11.8 µg/mL (≈ 38.3 µM)
NS(=O)(=O)c1ccc(CCNC(=O)Cc2cccs2)cc1	31.8 µg/mL (≈ 98 µM)
Cc1ccnc(N2C3CCC2CC(O)(c2ccccc2)C3)n1 (configuration not stated)	> 44.3 µg/mL
COc1cc(Br)c(Br)cc1N	14.7 µg/mL (≈ 52.3 µM)
COc1ccc(OCC(N)=O)cc1	> 27.2 µg/mL
C/C(=N\Nc1nccnc1Cl)c1ccc(F)cc1	> 39.7 µg/mL
NC(=O)c1ccccc1OCc1cccc2ccccc12	2.9 µg/mL (≈ 10.5 µM)
CC1CCCC(NC(=O)COC(=O)Cc2ccc(Cl)cc2)C1C (configuration not stated)	27.3 µg/mL (≈ 80.8 µM)
Cn1cc(/C=C2\C(=O)NC(=O)N(c3ccccc3)C2=O)c2ccccc21	1.6 µg/mL (≈ 4.63 µM)
CC(C)c1ccc(NS(=O)(=O)c2cccc3cccnc23)cc1	< 0.3 µg/mL
CCc1ccc(-c2cc(C(=O)O)c3ccccc3n2)s1	> 42.5 µg/mL
CC(C(=O)N1CCCCCC1)N(c1ccc(Cl)cc1)S(C)(=O)=O (configuration not stated)	46.8 µg/mL (≈ 130 µM)
COc1ccccc1NC(=O)CCN1CCN(C)CC1	38.6 µg/mL (≈ 139 µM)
COC(=O)c1ccc(CN2C(=O)NC3(CCC(C)CC3)C2=O)cc1 (configuration not stated)	7.5 µg/mL (≈ 22.7 µM)
CN(C)c1nc(N)ncc1-c1ccc(Oc2ccccc2)cc1	< 0.2 µg/mL
O=C(c1cc2cc(Cl)ccc2oc1=O)N1CCCCCCC1	7.6 µg/mL (≈ 23.8 µM)
O=C(COC(=O)c1cccnc1Cl)NCCc1ccc(F)cc1	> 50.5 µg/mL
CCCCCCn1c(=O)[nH]c2c(c1=O)CCC2	> 35.4 µg/mL
O=C(CNC(=O)c1ccccc1)OCc1cccc(Br)c1	46.4 µg/mL (≈ 133 µM)
COc1cc(Cl)c(C)cc1NC(=O)CN1CCCCCC1	< 0.3 µg/mL
CCN1CCN(c2nc(-c3ccc(F)cc3)cc(=O)[nH]2)CC1	> 45.4 µg/mL
O=C(NCc1ccccc1)c1cccnc1Sc1ccccc1	10.6 µg/mL (≈ 33.1 µM)

SMILES	solubility kinetic
O=C(NCc1ccccc1)N1CCOCC1	> 33 µg/mL
Cc1cccc(OCCCN2CCOCC2)c1C	25.4 µg/mL (≈ 102 µM)
COc1ccc(N2CCN(CC(=O)c3c[nH]c4ccccc34)CC2)cc1	1.9 µg/mL (≈ 5.44 µM)
C/C(=N\n1c(C)nc2ccccc2c1=O)c1ccc(N)cc1	> 43.9 µg/mL
CN(C1CCCCC1)S(=O)(=O)c1cccc2nsnc12	> 46.7 µg/mL
O=C(CN1C(=O)COc2ccccc21)NCCCN1CCCC1	> 47.6 µg/mL
COc1ccc(CCNc2ncccc2C#N)cc1OC	> 42.5 µg/mL
Nc1nc(NCCCN2CCOCC2)nc(Nc2cccc(F)c2)c1[N+](=O)[O-]	6.3 µg/mL (≈ 16.1 µM)
Cc1ccc(NC(=O)CCC(=O)c2cccs2)c(O)c1	24.2 µg/mL (≈ 83.6 µM)
Cc1ccc(NC(=O)CCNC(=O)c2ccco2)cc1F	> 43.5 µg/mL
Cc1cn(CC(=O)c2ccccc2)c2ccccc12	1.2 µg/mL (≈ 4.81 µM)
O=C1NC(=O)C(c2ccccc2)(c2ccc(O)cc2)N1 (configuration not stated)	> 40.2 µg/mL
CSCCC(NC(=O)C1CCCC1)c1nnc2ccccn12 (configuration not stated)	> 47.8 µg/mL
COC(=O)Cn1c(=O)oc2ccc(C)cc21	> 33.2 µg/mL
CC(C)NC(=O)c1ccc2c(c1)N(CC(=O)N1CCCCC1)C(=O)C(C)(C)O2	44.8 µg/mL (≈ 116 µM)
Cc1ccc(NC(=O)CNC(=O)c2ccco2)c(Cl)c1	> 43.9 µg/mL
CCOC(=O)C1=C[C@]2(CC)CCCN3CCc4c(n1c1ccccc41)[C@@H]32	35.5 µg/mL (≈ 101 µM)
COc1ccc2[nH]c(C)c(-c3csc(N)n3)c2c1	31.3 µg/mL (≈ 121 µM)
O[C@@H]1CN(Cc2ccccc2Cl)CC[C@H]1N1CCOCC1	39.9 µg/mL (≈ 128 µM)
COc1ccc(S(=O)(=O)N2CCOCC2)c2ccccc12	40.6 µg/mL (≈ 132 µM)
COc1ccc(C(=O)CNc2ccc3ccccc3c2)cc1	2.6 µg/mL (≈ 8.92 µM)
